Test system: Escherichia coli (ATCC25922) or Staphylococcus aureus (ATCC25923)
Test: Antibacterial MIC, microdilution method in Mueller-Hinton medium
Assay type: cell-based
Settings: Escherichia coli, 18 h, MIC in E. coli or S. aureus; two-fold serial dilutions 64 to 0.5 μg/ml in duplicate; 18 hours of incubation at 35° C.; read-out: Potency (MIC)
How it was run: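 Two-fold serial dilutions from 64 to 0.5 μg/ml, in duplicate, by broth microdilution in Mueller-Hinton medium (NCCLS M7-A5). MIC taken as the lowest concentration preventing visible growth after 18 h at 35° C.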

MIC | Structure (SMILES)
> 64 µg/mL | COc1cnc(NS(=O)(=O)c2ccc(Nc3nc(N4C[C@H](N)C[C@H](N)C4)nc(N4C[C@H](N)C[C@H](N)C4)n3)cc2)nc1 [N-{4-(5-methoxy-pyrimidin-2-ylsulfamoyl)-phenyl]-4,6-Bis-((3R,5S)-3,5-diamino-piperidin-1-yl)-[1,3,5]triazine-2-amine]
< 64 µg/mL | Cl.N[C@@H]1C[C@H](N)CN(c2nc(NNc3cc(Cl)ccc3Cl)nc(N3C[C@H](N)C[C@H](N)C3)n2)C1 [N-(4,6-Bis-((3R,5S)-3,5-diamino-piperidin-1-yl)-[1,3,5]triazin-2-yl)-N′-(2,5-Dichloro-phenyl)-hydrazine]
< 64 µg/mL | Cc1cccc(NC(=O)c2ccc(Nc3nc(N4CCCCC4)nc(N4CCCCC4)n3)cc2O)n1.Cl [N-[3-hydroxy-4-(6-methyl-pyridin-2-ylcarbamoyl)-phenyl]-4,6-Bis-((3R,5S)-3,5-diamino-piperidin-1-yl)-[1,3,5]triaazine-2-amine]
< 64 µg/mL | Cl.N[C@@H]1C[C@H](N)CN(c2nc(Nc3c[nH]c(=O)[nH]c3=O)nc(N3C[C@H](N)C[C@H](N)C3)n2)C1 [N-(2,4-dioxo-1,2,3,4-tetrahydro-pyrimidin-5-yl)-4,6-Bis-((3R,5S)-3,5-diamino-piperidin-1-yl)-[1,3,5]triazine-2-amine]
> 64 µg/mL | N[C@@H]1C[C@H](N)CN(c2nc(N3CCC(n4c(=O)[nH]c5ccccc54)CC3)nc(N3C[C@H](N)C[C@H](N)C3)n2)C1 [8-(4,6-Bis-((3R,5S)-3,5-0diamino-piperidin-1-yl)-[1,3,5]triazin-2-yl)-1-phenyl-1,3,8-triaza-spiro[4.5]decan-4-one]
> 64 µg/mL | N[C@@H]1C[C@H](N)CN(c2nc(NC3CCCNC3)nc(N3C[C@H](N)C[C@H](N)C3)n2)C1 (stereo partly drawn) [N-piperidin-3-yl-4,6-Bis-((3R,5S)-3,5-diamino-piperidin-1-yl)-[1,3,5]triazine-2-amine]
< 64 µg/mL | COc1cc(NC(=O)c2ccc(Nc3nc(N4CCCCC4)nc(N4CCCCC4)n3)cc2O)cc(OC)c1OC.Cl [N-[3-hydroxy-4-(3,4,5-trimethoxy-phenylcarbamoyl)-phenyl]-4,,6-Bis-((3R,5S)-33,5-diamino-piperidin-1-yl)-[1,3,5]triazine-2-amine]
< 64 µg/mL | Cc1ccc(S(=O)(=O)N(Cc2ccccc2)c2ccc(Nc3nc(NCCCn4ccnc4)nc(N4C[C@H](N)C[C@H](N)C4)n3)cc2O)cc1 [N-Benzyl-N-{4-[4-((3R,5S)-3,5-diamino-piperidin-1-yl)-6-(3-imidazol-1-yl-propylamino)-[1,3,5]triazin-2-ylamino]-2-hydroxy-phenyl}-4-methyl-benzenesulfonamide]

Structure (SMILES) | MIC
N[C@@H]1C[C@H](N)CN(c2nc(NNc3ccc([N+](=O)[O-])cc3[N+](=O)[O-])nc(N3C[C@H](N)C[C@H](N)C3)n2)C1 [N-(4,6-Bis-((3R,5S)-3,5-diamino-piperidin-1-yl)-[1,3,5]triazin-2-yl)-N′-(2,4-Dinitro-phenyl)-hydrazine] | > 64 µg/mL

Same assay, conditions: Escherichia coli, 18 h, read-out: Potency (MIC)

Structure (SMILES) | MIC
NC[C@@H]1C[C@H](N)CN1c1nc(Nc2ccc(NC(=O)c3ccc(Cl)cc3)c(O)c2)nc(N2C[C@H](N)C[C@H](N)C2)n1 [N-{4-[4-((2S,4S)-4-Amino-2-aminomethyl-pyrrolidin-1-yl)-6-((3R,5S)-3,5-diamino-piperidin-1-yl)-[1,3,5]triazin-2-ylamino]-2-hydroxy-phenyl}-4-chloro-benzamide] | < 16 µg/mL
C=Cc1ccc(Nc2nc(N3C[C@H](N)C[C@H](N)C3)nc(N3C[C@H](N)C[C@H](N)C3)n2)cc1 [N-(4-vinyl-phenyl)-4,6-Bis-((3R,5S)-3,5-diamino-piperidin-1-yl)-[1,3,5]triazine-2-amine] | < 64 µg/mL
Cc1ccc(C(=O)Nc2ccc(Nc3nc(N4C[C@H](N)C[C@H](N)C4)nc(N4C[C@@H](N)C[C@H]4CN)n3)cc2O)cc1 [N-{4-[4-((2S,4S)-4-Amino-2-aminomethyl-pyrrolidin-1-yl)-6-((3R,5S)-3,5-diamino-piperidin-1-yl)-[1,3,5]triazin-2-ylamino]-2-hydroxy-phenyl}-4-methyl-benzamide] | < 64 µg/mL
N[C@@H]1C[C@H](N)CN(c2nc(Nc3cccc(NC(=O)c4ccc(Cl)cc4O)c3)nc(N3C[C@H](N)C[C@H](N)C3)n2)C1 [N-[3-(4-chloro-2-hydroxy-benzoylamino)-phenyl]-4,6-Bis-((3R,5S)-3,5-diamino-piperidin-1-yl)-[1,3,5]triazine-2-amine] | < 16 µg/mL
Cc1cc(Nc2nc(N3C[C@H](N)C[C@H](N)C3)nc(N3C[C@H](N)C[C@H](N)C3)n2)ccc1NC(=O)c1cccc(O)c1O [N-[4-(2,3-dihydroxy-benzoylamino)-3-methyl-phenyl]-4,6-Bis-((3R,5S)-3,5-diamino-piperidin-1-yl)-[1,3,5]triazine-2-amine] | < 16 µg/mL
Cc1ccnc(NS(=O)(=O)c2ccc(Nc3nc(N4C[C@H](N)C[C@H](N)C4)nc(N4C[C@H](N)C[C@H](N)C4)n3)cc2)n1 [N-[4-(4-methyl-pyrimidin-2-ylsulfamoyl)-phenyl]-4,6-Bis-((3R,5S)-3,5-diamino-piperidin-1-yl)-[1,3,5]triazine-2-amine] | > 64 µg/mL
N[C@@H]1C[C@H](N)CN(c2nc(Nc3cccc(CO)c3)nc(N3C[C@H](N)C[C@H](N)C3)n2)C1 [N-(3-hydroxymethyl-phenyl)-4,6-Bis-((3R,5S)-3,5-diamino-piperidin-1-yl)-[1,3,5]triazine-2-amine] | > 64 µg/mL
N[C@@H]1C[C@H](N)CN(c2nc(Nc3ccc(C(=O)Nc4cccc(CO)c4)c(O)c3)nc(N3C[C@H](N)C[C@H](N)C3)n2)C1 [N-[3-hydroxy-4-(3-hydroxymethyl-phenylcarbamoyl)-phenyl]-4,6-Bis-((3R,5S)-3,5-diamino-piperidin-1-yl)-[1,3,5]triazine-2-amine] | < 64 µg/mL
N[C@@H]1C[C@H](N)CN(c2nc(Nc3ccc(NC(=O)c4cccc(O)c4O)cc3)nc(N3C[C@H](N)C[C@H](N)C3)n2)C1 [N-[4-(2,3-dihydroxy-benzoylamino)-phenyl]-4,6-Bis-((3R,5S)-3,5-diamino-piperidin-1-yl)-[1,3,5]triazine-2-amine] | < 16 µg/mL
N[C@@H]1C[C@H](N)CN(c2nc(Nc3ccc(C(=O)CC(=O)Nc4ccc5c(c4)OC(F)(F)O5)cc3)nc(N3C[C@H](N)C[C@H](N)C3)n2)C1 [N-{4-[2-(2,2-difluoro-benzo[1,3]dioxol-5-ylcarbamoyl)-acetyl]-phenyl}-4,6-Bis-((3R,5S)-3,5-diamino-piperidin-1-yl)-[1,3,5]triazine-2-amine] | < 16 µg/mL
N[C@@H]1C[C@H](N)CN(c2nc(Nc3ccc(C(=O)CC(=O)Nc4ccc5c(c4)OC(F)(F)O5)cc3)nc(N3C[C@@H](N)C[C@H]3CO)n2)C1 [3-{4-[4-((2S,4S)-4-Amino-2-hydroxymethyl-pyrrolidin-1-yl)-6-((3R,5S)-3,5-diamino-piperidin-1-yl)-[1,3,5]triazin-2-ylamino]-phenyl}-N-(2,2-difluoro-benzo[1,3]dioxol-5-yl)-3-oxo-propionamide] | < 16 µg/mL
N[C@@H]1C[C@H](N)CN(c2nc(NNc3cccc(F)c3)nc(N3C[C@H](N)C[C@H](N)C3)n2)C1 [N-(4,6-Bis-((3R,5S)-3,5-diamino-piperidin-1-yl)-[1,3,5]triazin-2-yl)-N′-(3-Fluoro-phenyl)-hydrazine] | > 64 µg/mL
COc1nc(Nc2ccc(NC(=O)c3ccc4ccccc4c3O)cc2)nc(N2C[C@H](N)C[C@H](N)C2)n1 [1-Hydroxy-naphthalene-2-carboxylic acid {4-[4-((3R,5S)-3,5-diamino-piperidin-1-yl)-6-methoxy-[1,3,5]triazin-2-ylamino]-phenyl}-amide] | < 16 µg/mL
N#CCCNS(=O)(=O)c1ccc(Cl)c(Nc2nc(N3C[C@H](N)C[C@H](N)C3)nc(N3C[C@H](N)C[C@H](N)C3)n2)c1 [N-[2-chloro-5-(2-cyano-ethylsulfamoyl)-phenyl]-4,6-Bis-((3R,5S)-3,5-diamino-piperidin-1-yl)-[1,3,5]triazine-2-amine] | > 64 µg/mL
CCCCCCCCCC(=O)Nc1ccc(S(=O)(=O)Nc2ccc(Nc3nc(N4C[C@H](N)C[C@H](N)C4)nc(N4C[C@H](N)C[C@H](N)C4)n3)cc2O)cc1 [N-[4-(4-decanoylamino-benzenesulfonylamino)-3-hydroxy-phenyl]-4,6-Bis-((3R,5S)-3,5-diamino-piperidin-1-yl)-[1,3,5]triazine-2-amine] | < 16 µg/mL
N[C@@H]1C[C@H](N)CN(c2nc(Nc3ccc(C(=O)Nc4ccc(F)c(Cl)c4)c(O)c3)nc(N3C[C@H](N)C[C@H](N)C3)n2)C1 [N-[4-(3-chloro-4-fluoro-phenylcarbamoyl)-3-hydroxy-phenyl]-4,6-Bis-((3R,5S)-3,5-diamino-piperidin-1-yl)-[1,3,5]triazine-2-amine] | < 16 µg/mL
COc1cccc(C(=O)Nc2ccc(Nc3nc(N4C[C@H](N)C[C@H](N)C4)nc(N4C[C@H](N)C[C@H](N)C4)n3)cc2)c1O [N-[4-(2-hydroxy-3-methoxy-benzoylamino)-phenyl]-4,6-Bis-((3R,5S)-3,5-diamino-piperidin-1-yl)-[1,3,5]triazine-2-amine] | < 64 µg/mL
C[C@H](Nc1nc(N2C[C@H](N)C[C@H](N)C2)nc(N2C[C@H](N)C[C@H](N)C2)n1)c1cccc2ccccc12 [N-((S)-1-naphthalen-1-yl-ethyl)-4,6-Bis-((3R,5S)-3,5-diamino-piperidin-1-yl)-[1,3,5]triazine-2-amine] | > 64 µg/mL

Same assay, conditions: MIC in E. coli or S. aureus; two-fold serial dilutions 64 to 0.5 μg/ml in duplicate; 18 hours of incubation at 35° C.

Structure (SMILES) | Potency (MIC)
NC[C@@H]1CN(c2nc(Nc3ccc(C(=O)Oc4ccccc4)c(O)c3)nc(N3C[C@H](N)C[C@H](N)C3)n2)CC[C@@H]1O [4-[4-((3R,4S)-3-Aminomethyl-4-hydroxy-piperidin-1-yl)-6-((3R,5S)-3,5-diamino-piperidin-1-yl)-[1,3,5]triazin-2-ylamino]-2-hydroxy-benzoic acidphenylester] | − (− means MIC>64 μg/ml in E. coli or S. aureus)
